# Patent publication US5670520A, “Method for inhibiting virus replication in mammalian cells using carbostyil derivatives” (Otsuka Pharmaceutical Co., Ltd., priority 1996, dated 1997)
# Like-named read-outs stand apart in the source and are kept apart here.
# Tests used:
# [1] = system: EBNA2, LMP1, bcl-2; test: Western blot of EBNA2, LMP1 and bcl-2 in Burkitt's lymphoma cell lines; format: cell-based, human; details: 20 μg/ml vesnarinone 7 days
# Excerpt: The cell lines included Akata (type A, group I), Raji (type A, group III), P3HR1 (type B, group I) (ATCC No. HTB-62), and Jijoye (type B, group III) (ATCC No. CCL-87). The molecules examined were a latent nuclear protein, EBNA2, a latent membrane protein, LMP1, and an anti-apoptotic host component, bcl-2. […] These differences between the two phenotypes have been related to the sensitivity to induce apoptosis, and the ability to induce the productive phase of EBV infection (Henderson et al, Cell, 65:1107-1115 (1991); and Gregory et al, Nature, 349:612-614 (1991)).
# For detection of EBNA2, LMP1, and bcl-2, the mouse monoclonal anti-EBNA2 (PE2, Accurate, Westbury, N.Y.) (Young et al, N. Engl. J. Med., 321:1080-1085 (1989)), the mouse monoclonal anti-LMP1 (S12, provided by Dr. David A. Thorley-Lawson) (Mann et al, J. Virol., 55:710-720 (1985)), and the monoclonal anti-bcl-2 (bcl-2/124, Accurate) (Pezzella et al, Am. J. Pathol., 137:225-232 (1990)), respectively, were used. The ECL chemiluminescence method was used for the detection of these proteins.
# [2] = system: thymidine kinase; test: Thymidine kinase activity in extracts of treated Akata cells; format: cell-based; details: 100 μg/ml vesnarinone
# Procedure: The pellet of frozen cells was suspended in 100 μl of kinase extraction buffer comprising 50 mM Tris (pH 8.0), 50 mM KCl, 1.0 mM MgCl2, 1.0 mM ATP, 1.0 mM DTT, 5.0% (v/v) glycerol, 80 μg/ml aprotinin, 40 μM leupeptin and 1.0 mM PMSF, and incubated on ice for 30 min after a brief sonication. The nuclei were removed by high speed centrifugation for 15 min and the supernatant (kinase extract) was aliquoted and stored at -70° C. The protein concentration of the kinase extract (about 4.0 mg/ml) was determined using standard Bradford Reagent (Bio-Rad Protein Assay Kit, Bio-Rad Laboratories, Hercules, Calif.), with BSA as a protein standard.
# 5.0 μl of the kinase extract was incubated at 37° C. with 35 µl of kinase reaction buffer comprising 150 mM phosphate (pH 7.5), 20 mM ATP, 20 mM MgCl2, 40 mM KCl, 1.0 mM DTT, 10 mM NaF and 20 μM [^3 H]thymidine (6.7 Ci/mmole, ICN) for 5 or 15 min. The reaction was terminated by placing on ice, and an addition of 4.0 μl of 0.5M EDTA (pH 8.0). […]
# The amount of phosphorylated [^3 H]thymidine derivatives formed during the reaction was determined by applying the reaction mixtures onto Whatman DE-81 paper filters, which were then washed four times in 1.0 mM ammoniumformate (pH 8.0), and once in ethanol before drying and liquid scintillation counting. […]
# [3] = system: nucleoside and nucleobase transport in human T cells; test: [3H]nucleoside / [3H]nucleobase transport, 1 min pulse, T cells; format: cell-based; details: 250 μM vesnarinone, 100 μM deferoxamine, 15 nM aphidicolin or 1.0 μM dipyridamole
# [4] = system: Akata, P3HR1, Jijoye, Raji; test: Cell growth of Burkitt's lymphoma cell lines, 7 days; format: cell-based; details: Homo sapiens, Burkitts lymphoma cell, 168 h; read-out: cell growth (cell numbers) relative to control cultures
# [5] = system: CHO cells; test: Rescue of CHO cells from cytostatic effects of 5-FUd; format: cell-based, Chinese hamster; details: 50 nM 5-FUd, 120 hrs; 0-250 μM vesnarinone or 1.0-10 μM dipyridamole
# Excerpt: Nucleoside transport inhibitors, such as dipyridamole or NBMPR, are known to rescue cell proliferation from the cytotoxic effects of 5-fluorouridine(5-FUd) or high dose thymidine, by inhibiting transport of this cytotoxic nucleoside analog or thymidine (Aronow et al, Mol. Cell Biol., 6:2957-2962 (1986)).
# [6] = system: U937 cells; test: Intracellular AZT-MP, AZT-DP, AZT-TP in U937 cells by HPLC; details: vesnarinone 75 μM (30 μg/ml); [3H]AZT 2 hr
# Procedure: 1.0 ml fractions were collected, and the radioactivity was measured by liquid scintillation. The retention time for AZT and AZT-MP was confirmed using cold AZT and AZT-MP (Sigma) under the same conditions.
# Intracellular concentrations of [^3 H]AZT-MP, [^3 H]AZT-DP, and [^3 H]AZT-TP were measured using HPLC as described above.
# [7] = system: MRC5 cells; test: MTT cell viability of MRC5 cells; format: cell-based
# Procedure: (§1) More specifically, 5.0 μg/ml of MTT in Eagles MEM supplemented with 2.0% (v/v) fetal bovine serum was added to each well, and incubated at 37° C. for 6 hr. The cells were then solubilized by adding 30% (w/v) SDS in 0.02N HCl. The cultures were incubated overnight at 37° C. Then, the optical density was measured at 570 nm on a spectrophotometer.
# [8] = MTT cell viability of MRC5 cells; format: cell-based; details: human, mrc5 cells, read-out: MTT Cell Viability (% of control)
# Procedure: as §1
# [9] = system: CHO cells; test: [3H]adenosine / [3H]adenine transport in CHO cells; details: 0-750 μM vesnarinone or 0-100 μM dipyridamole, 1 min pulse
# [10] = system: PHA-activated human T lymphocytes; test: Accumulation of phosphorylated [3H]thymidine / [3H]AZT in PHA-activated human T lymphocytes; format: cell-based; details: 0, 75 or 250 μM vesnarinone; 0-120 min
# Excerpt: Similar results were obtained when using U937 cells, in place of the PHA-activated human T lymphocytes.
# [11] = some patients; cited from earlier work
# [12] = system: human T cells; test: Cell numbers of PHA-stimulated human T cells over 120 hrs; format: cell-based; details: 10 μg/ml PHA, 0-120 hrs; 250 μM vesnarinone, 15 nM aphidicolin or 100 μM deferoxamine
# Procedure: Next, the effects of the above-described drugs on cell proliferation were evaluated over a period of 120 hrs.
# [13] = target: T1, E. coli DNA polymerase I (Escherichia coli, UniProt P00582); test: In vitro DNA polymerase assay; format: biochemical; details: vesnarinone up to 100 μg/ml
# T1 construct: purchased Boehringer Mannheim
# T1 sequence (P00582 whole entry): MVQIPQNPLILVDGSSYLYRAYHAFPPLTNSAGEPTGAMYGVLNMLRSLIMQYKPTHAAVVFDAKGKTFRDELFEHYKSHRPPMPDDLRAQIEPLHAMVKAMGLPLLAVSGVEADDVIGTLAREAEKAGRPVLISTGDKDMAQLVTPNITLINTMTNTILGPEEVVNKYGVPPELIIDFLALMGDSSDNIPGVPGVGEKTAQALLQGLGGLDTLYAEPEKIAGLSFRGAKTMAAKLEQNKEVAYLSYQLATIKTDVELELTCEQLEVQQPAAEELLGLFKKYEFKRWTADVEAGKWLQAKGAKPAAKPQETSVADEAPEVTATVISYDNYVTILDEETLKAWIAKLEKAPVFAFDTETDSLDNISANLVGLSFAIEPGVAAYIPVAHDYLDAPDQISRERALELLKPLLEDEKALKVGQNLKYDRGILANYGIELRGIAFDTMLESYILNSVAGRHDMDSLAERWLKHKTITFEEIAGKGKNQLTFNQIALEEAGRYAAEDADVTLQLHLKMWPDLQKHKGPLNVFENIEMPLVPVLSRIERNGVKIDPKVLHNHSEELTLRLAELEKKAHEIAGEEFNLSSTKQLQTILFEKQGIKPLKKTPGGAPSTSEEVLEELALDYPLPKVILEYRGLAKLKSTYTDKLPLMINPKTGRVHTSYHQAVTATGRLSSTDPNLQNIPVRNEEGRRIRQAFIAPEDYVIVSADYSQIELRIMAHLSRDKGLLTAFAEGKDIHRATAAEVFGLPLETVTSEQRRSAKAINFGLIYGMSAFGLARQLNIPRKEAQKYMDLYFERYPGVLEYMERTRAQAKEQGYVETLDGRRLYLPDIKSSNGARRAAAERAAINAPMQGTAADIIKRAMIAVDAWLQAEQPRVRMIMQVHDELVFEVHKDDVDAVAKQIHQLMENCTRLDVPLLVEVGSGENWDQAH
smiles,measurement,setting,value
"COc1ccc(C(=O)N2CCN(c3ccc4c(c3)CCC(=O)N4)CC2)cc1OC [vesnarinone, 3,4-dihydro-6-[4-(3,4-dimethoxybenzoyl)-1-piperazinyl]-2(1H)-quinoline]","expression of EBNA2, LMP1, bcl-2","[1]; group I lines (Akata, P3HR1)",did not induce these molecules in the group I lines
same,"expression of EBNA2, LMP1, bcl-2","[1]; group III lines (Raji, Jijoye)",nor did the vesnarinone alter levels of expression of these molecules in the group III lines
same,increase in dTTP-resistant thymidine kinase,[2]; 100 μM dTTP in reaction,partially suppressed by vesnarinone treatment
same,increase in whole thymidine kinase activity in anti-IgG treated cells,[2]; without dTTP,partially inhibited in the presence of vesnarinone
same,"transport of [3H]thymidine, [3H]adenosine, [3H]adenine, [3H]uracil",[3],"inhibited transportation of [^3 H]thymidine, [^3 H]adenosine, [^3 H]adenine, and also to a lesser extent, [^3 H]uracil"
same,activity at 20 µg/mL,[4],80 to 90%
same,reversal of cytostatic effects of 5-FUd (cell number),[5],demonstrated a similar ability to rescue the cells in a dose-dependent manner
same,increase of intracellular AZT-DP,[6],45%
same,increase of intracellular AZT-MP,[6],100%
same,MTT Cell Viability (% of control),[7]; vesnarinone 3.88 μg/ml alone,100 % of control
same,MTT Cell Viability (% of control),[7]; vesnarinone 7.75 μg/ml alone,98 % of control
same,MTT Cell Viability (% of control),[7]; vesnarinone 15.5 μg/ml alone,98 % of control
same,MTT Cell Viability (% of control),[7]; vesnarinone 31 μg/ml alone,90 % of control
same,cytotoxicity by MTT,"[7]; vesnarinone 3.88-31 μg/ml, alone or with DHPG 0.625-5.000 μM",little or no cytotoxicity was observed
same,viability,[8]; vesnarinone 3.88 μg/ml alone,100%
same,viability,[8]; vesnarinone 7.75 μg/ml alone,98%
same,viability,[8]; vesnarinone 15.5 μg/ml alone,98%
same,viability,[8]; vesnarinone 31 μg/ml alone,90%
same,[3H]adenosine and [3H]adenine transport,[9],inhibitory effects on nucleoside and nucleobase transport in vitro were observed within the therapeutic range
same,accumulation of phosphorylated AZT,[10],augmented the accumulation of phosphorylated AZT
same,accumulation of phosphorylated [3H]thymidine,[10],delayed the accumulation of phosphorylated [^3 H]thymidine
same,major side effect in patients,[11],"agranulocytosis, a major side effect of vesnarinone observed in some patients"
same,cell proliferation (cell number),[12],"inhibited cell proliferation when compared to control cultures, but increases in cell number were nonetheless observed"
same,effect on in vitro DNA polymerase assay,[13],has no effect on the measurement of dNTP contents in this in vitro DNA polymerase assay
